Here are results for 20 compounds from patent US11066414B2, “Cot modulators and methods of use thereof” (Gilead Sciences, Inc., priority 2015, dated 2021).

SMILES strings stand for the structures. Where two headings read alike, the source gives them in different places.

One assay concerns TNFα. The assay is described as follows: Cot Monocyte TNFα Cell Based Assay.
Another assay has as its target Human Cot (Homo sapiens (Human), UniProt P41279). The assay can be described thus: High Throughput Cot Biochemical Assay. The note with it: Cot HTRF (TR-FRET KinEASE) biochemical assay, 400 μM ATP.
Where [1] appears, read: read-out: EC50 TNF, LPS-stimulated human monocytes, TNFα TR-FRET.
The mark [2] stands for this setting: Homo sapiens, Monocyte, read-out: EC50 TNF, LPS-stimulated human monocytes, TNFα TR-FRET.

Human Cot, sequence (P41279 30-397): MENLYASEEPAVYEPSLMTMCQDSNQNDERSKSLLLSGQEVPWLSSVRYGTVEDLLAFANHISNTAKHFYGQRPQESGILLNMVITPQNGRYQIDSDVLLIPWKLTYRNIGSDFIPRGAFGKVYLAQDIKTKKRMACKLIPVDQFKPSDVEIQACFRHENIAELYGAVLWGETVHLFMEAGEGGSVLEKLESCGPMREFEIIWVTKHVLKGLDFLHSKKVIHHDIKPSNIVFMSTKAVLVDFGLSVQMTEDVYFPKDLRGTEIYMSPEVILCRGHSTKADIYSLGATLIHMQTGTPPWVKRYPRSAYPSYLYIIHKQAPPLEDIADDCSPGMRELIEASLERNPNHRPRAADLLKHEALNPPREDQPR

In the case of `Cc1nc(F)ccc1[C@H](Nc1cc(C#N)c2ncc(C#N)c(NCC(C)(C)C(F)(F)F)c2c1)c1cn(C2(C3CC3)CC2)nn1` [Example 867, (S)-6-(((4-(1-(1,1-bi(cyclopropan)]-1-yl)-1H-1,2,3-triazol-4-yl)(6-fluoro-2-methylpyridin-3-yl)methyl)amino)-4-((3,3,3-trifluoro-2,2-dimethylpropyl)amino)quinoline-3,8-dicarbonitrile], in the assay with TNFα (setting [1]), the EC50 came to 27 nM. The IC50 at Human Cot (read-out: IC50 HTRF) amounted to 3 nM.
Turning to `COc1c([C@@H](Nc2cc(C#N)c3ncc(C#N)c(NCC(C)(C)C)c3c2)c2ccc(F)nc2C)nnn1C12CC(C1)C2` [Example 868, (S)-6-(((1-(bicyclo[1.1,1]pentan-1-yl)-5-methoxy-1H-1,2,3-triazol-4-yl)(6-fluoro-2-methylpyridin-3-yl)methyl)amino)-4-(neopentylamino)quinoline-3,8-dicarbonitrile], the half-maximal effective concentration (EC50) in the assay on TNFα (setting [2]) worked out at 70 nM. The same compound displayed an IC50 against Human Cot (IC50 HTRF) of 2 nM.
In the same order, the values of `CC(C)(C)CNc1c(C#N)cnc2c(C#N)cc(N[C@H](c3cn(C4(C(F)F)CC4)nn3)c3cccc4c(=O)n(CC(F)F)ccc34)cc12` [Example 870, (S)-6-(((2-(2,2-difluoroethyl)-1-oxo-1,2-dihydroisoquinolin-5-yl)(1-(1-(difluoromethyl)cyclopropyl)-1H-1,2,3-triazol-4-yl)methyl)amino)-4-(neopentylamino)quinoline-3,8-dicarbonitrile] are 169 nM and 2 nM.
As to `Cn1ccc2c([C@H](Nc3cc(C#N)c4ncc(C#N)c(NCC(C)(C)C)c4c3)c3cn(C4(C(F)F)CC4)nn3)cccc2c1=O` [Example 871], the EC50 in the assay with TNFα (setting [1]) was determined as 32 nM. For the same compound, the IC50 on Human Cot (read-out: IC50 HTRF) came out at 1 nM.
For `Cc1nc(F)ccc1[C@H](Nc1cc(C#N)c2ncc(C#N)c(NCC(C)(C)C)c2c1)c1cn(C2CC23CC3)nn1` (stereo partly drawn) [Example 872, 6-(((1S)-(6-fluoro-2-methylpyridin-3-yl)(1-(spiro[2.2]pentan-1-yl)-1H-1,2,3-triazol-4-yl)methyl)amino)-4-(neopentylamino)quinoline-3,8-dicarbonitrile], the EC50 in the assay on TNFα (setting [2]) stood at 15 nM. Further, the 50% inhibitory concentration (IC50) at Human Cot (IC50 HTRF) is 1 nM.
The like results for `CC(C)(C)CNc1c(C#N)cnc2c(C#N)cc(N[C@H](c3cn(C4(C(F)(F)F)CC4)nn3)c3cccc4c(=O)n(CC(F)F)ccc34)cc12` [Example 874, (S)-6-(((2-(2,2-difluoroethyl)-1-oxo-1,2-dihydroisoquinolin-5-yl)(1-(1-(trifluoromethyl)cyclopropyl)-1H-1,2,3-triazol-4-yl)methyl)amino)-4-(neopentylamino)quinoline-3,8-dicarbonitrile] were, in that order, 73 nM and 3 nM.
Regarding `CC(C)(C)CNc1c(C#N)cnc2c(C#N)cc(N[C@H](c3cn(C4(C(F)(F)F)CC4)nn3)c3cccc4c(=O)n(CC(F)(F)F)ccc34)cc12` [Example 875, (S)-4-(neopentylamino)-6-(((1-oxo-2-(2,2,2-trifluoroethyl)-1,2-dihydroisoquinolin-5-yl)(1-(1-(trifluoromethyl)cyclopropyl)-1H-1,2,3-triazol-4-yl)methyl)amino)quinoline-3,8-dicarbonitrile], in the assay on TNFα (setting [2]), the EC50 was 166 nM. The half-maximal inhibitory concentration (IC50) on Human Cot (IC50 HTRF) was 2 nM.
In the case of `CC(C)(C)CNc1c(C#N)cnc2c(C#N)cc(N[C@H](c3cn(C4(C(F)F)CC4)nn3)c3cccc4c(=O)[nH]ccc34)cc12` [Example 876, (S)-6-(((1-(1-(difluoromethyl)cyclopropyl)-1H-1,2,3-triazol-4-yl)(1-oxo-1,2-dihydroisoquinolin-5-yl)methyl)amino)-4-(neopentylamino)quinoline-3,8-dicarbonitrile], the 50% effective concentration (EC50) in the assay on TNFα (setting [2]) was determined as 385 nM. For the same compound, the IC50 at Human Cot (IC50 HTRF) was 2 nM.
For `C[C@@H](CF)n1cc([C@@H](Nc2cc(C#N)c3ncc(C#N)c(NCC(C)(C)C)c3c2)c2cccc3c(=O)n(C)ccc23)nn1` [Example 877, 6-(((S)-(1-((S)-1-fluoropropan-2-yl)-1H-1,2,3-triazol-4-yl)(2-methyl-1-oxo-1,2-dihydroisoquinolin-5-yl)methyl)amino)-4-(neopentylamino)quinoline-3,8-dicarbonitrile], in the assay with TNFα (setting [2]), the EC50 turned out to be 34 nM. The compound also gave an IC50 at Human Cot (IC50 HTRF) of 2 nM.
In the same order, the values of `Cn1ccc2c([C@H](Nc3cc(C#N)c4ncc(C#N)c(NCC(C)(C)C)c4c3)c3cn(C4(CF)CC4)nn3)cccc2c1=O` [Example 878, (S)-6-(((1-(1-(fluoromethyl)cyclopropyl)-1H-1,2,3-triazol-4-yl)(2-methyl-1-oxo-1,2-dihydroisoquinolin-5-yl)methyl)amino)-4-(neopentylamino)quinoline-3,8-dicarbonitrile] are 31 nM and 2 nM.
The like results for `Cn1ccc2c([C@H](Nc3cc(C#N)c4ncc(C#N)c(NCC(C)(C)C)c4c3)c3cn(C4(C)CC4)nn3)cccc2c1=O` [Example 879, (S)-6-(((2-methyl-1-oxo-1,2-dihydroisoquinolin-5-yl)(1-(1-methylcyclopropyl)-1H-1,2,3-triazol-4-yl)methyl)amino)-4-(neopentylamino)quinoline-3,8-dicarbonitrile] were, in that order, 13 nM and 1 nM.
In the case of `Cn1ccc2c([C@H](Nc3cc(C#N)c4ncc(C#N)c(NCC(C)(C)C)c4c3)c3cn(C(CF)CF)nn3)cccc2c1=O` [Example 880, (S)-6-(((1-(l,3-difluoropropan-2-yl)-1H-1,2,3-triazol-4-yl)(2-methyl-1-oxo-1,2-dihydroisoquinolin-5-yl)methyl)amino)-4-(neopentylamino)quinoline-3,8-dicarbonitrile], the EC50 in the assay with TNFα (setting [1]) is 80 nM. Also, the IC50 on Human Cot (read-out: IC50 HTRF) was 3 nM.
The like results for `Cn1ccc2c([C@H](Nc3cc(C#N)c4ncc(C#N)c(NCC(C)(C)C)c4c3)c3cn(C4(C5CC5)CC4)nn3)cccc2c1=O` [Example 881, (S)-6-(((4-(1-(1-bi(cyclopropan)]-1-yl)-1H-1,2,3-triazol-4-yl)(2-methyl-1-oxo-1,2-dihydroisoquinolin-5-yl)methyl)amino)-4-(neopentylamino)quinoline-3,8-dicarbonitrile] were, in that order, 13 nM and 2 nM.
On to `Cn1ccc2c([C@H](Nc3cc(C#N)c4ncc(C#N)c(NCC(C)(C)C(F)(F)F)c4c3)c3cn(C4(C5CC5)CC4)nn3)cccc2c1=O` [Example 882, (S)-6-(((1-([1,1′-bi(cyclopropan)]-1-yl)-1H-1,2,3-triazol-4-yl)(2-methyl-1-oxo-1,2-dihydroisoquinolin-5-yl)methyl)amino)-4-((3,3,3-trifluoro-2,2-dimethylpropyl)amino)quinoline-3,8-dicarbonitrile], for which the 50% effective concentration (EC50) in the assay with TNFα (setting [2]) came to 18 nM. On Human Cot (IC50 HTRF), this compound returned an IC50 of 2 nM.
On to `Cn1ccc2c([C@H](Nc3cc(C#N)c4ncc(C#N)c(NCC(C)(C)C(F)(F)F)c4c3)c3cn(C45CC(C4)C5)nn3)cccc2c1=O` [Example 883, (S)-6-(((1-(bicyclo[1.1.1]pentan-1-yl)-1H-1,2,3-triazol-4-yl)(2-methyl-1-oxo-1,2-dihydroisoquinolin-5-yl)methyl)amino)-4-((3,3,3-trifluoro-2,2-dimethylpropyl)amino)quinoline-3,8-dicarbonitrile], for which the 50% effective concentration (EC50) in the assay with TNFα (setting [2]) was found to be 13 nM. Further, it took 1 nM to reach half-maximal inhibition at Human Cot (IC50 HTRF) (IC50).
The like results for `Cn1ccc2c([C@H](Nc3cc(C#N)c4ncc(C#N)c(NCC(C)(C)C(F)(F)F)c4c3)c3cn(C4(C)CC4)nn3)cccc2c1=O` [Example 884, (S)-6-(((2-methyl-1-oxo-1,2-dihydroisoquinolin-5-yl)(1-(1-methylcyclopropyl)-1H-1,2,3-triazol-4-yl)methyl)amino)-4-((3,3,3-trifluoro-2,2-dimethylpropyl)amino)q uin oline-3,8-dicarbonitrile] were, in that order, 19 nM and 1 nM.
Turning to `COc1ncccc1[C@H](Nc1cc(C#N)c2ncc(C#N)c(NCC(C)(C)C)c2c1)c1cn(C2(C(F)(F)F)CC2)nn1` [Example 885, (S)-6-(((2-methoxypyridin-3-yl)(1-(1-(trifluoromethyl)cyclopropyl)-1H-1,2,3-triazol-4-yl)methyl)amino)-4-(neopentylamino)quinoline-3,8-dicarbonitrile], the EC50 with TNFα (setting [2]) was determined as 132 nM. Also, at Human Cot (IC50 HTRF), the concentration for half-maximal inhibition (IC50) was determined as 10 nM.
In the same order, the values of `Cn1ccc2c([C@H](Nc3cc(C#N)c4ncc(C#N)c(NCC(C)(C)C(F)(F)F)c4c3)c3cn(C4(C(F)(F)F)CC4)nn3)cccc2c1=O` [Example 886, (S)-6-(((2-methyl-1-oxo-1,2-dihydroisoquinolin-5-yl)(1-(1-(trifluoromethyl)-cyclopropyl)-1H-1,2,3-triazol-4-yl)methyl)-amino)-4-((3,3,3-trifluoro-2,2-dimethylpropyl)-amino)quinoline-3,8-dicarbonitrile] are 30 nM and 3 nM.
The like results for `Cn1c(=O)ccc2c([C@H](Nc3cc(C#N)c4ncc(C#N)c(NCC(C)(C)C)c4c3)c3cn(C45CC(C4)C5)nn3)cccc21` [Example 887, (S)-6-(((1-(bicyclo[1.1.1]pentan-1-yl)-1H-1,2,3-triazol-4-yl)(1-methyl-2-oxo-1,2-dihydroquinolin-5-yl)methyl)amino)-4-(neopentylamino)quinoline-3,8-dicarbonitrile] were, in that order, 33 nM and 3 nM.
The like results for `CC(C)(C)CNc1c(C#N)cnc2c(C#N)cc(N[C@H](c3cn(C45CC(C4)C5)nn3)c3cccc4c(=O)[nH]ccc34)cc12` [Example 888, (S)-6-(((1-(bicyclo[1.1.1]pentan-1-yl)-1H-1,2,3-triazol-4-yl)(1-oxo-1,2-dihydroisoquinolin-5-yl)methyl)amino)-4-(neopentylamino)quinoline-3,8-dicarbonitrile] were, in that order, 165 nM and 2 nM.
